Reference: patent US5554615A, “Condensed pyrimidine derivative” (Eisai Co., Ltd., priority 1991, dated 1996)
Like-named read-outs stand apart in the source and are kept apart here.

Experiments:
[1] = target: T1, dihydrofolate reductase (DHFR) (Mus musculus, UniProt P00375); test: Inhibitory activity against dihydrofolate reductase (DHFR); format: biochemical
T1 construct: DHFR was prepared from mouse leukemic cell P388; endogenous in cells; host or cells: P388 mouse leukemia cells (enzyme purified from the cells)
T1 sequence (P00375 1-187): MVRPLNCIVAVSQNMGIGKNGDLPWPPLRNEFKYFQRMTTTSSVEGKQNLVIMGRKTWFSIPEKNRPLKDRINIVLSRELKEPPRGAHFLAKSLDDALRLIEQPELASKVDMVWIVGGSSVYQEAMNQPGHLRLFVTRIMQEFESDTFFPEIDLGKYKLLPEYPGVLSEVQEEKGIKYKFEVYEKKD
Description: DHFR was prepared from mouse leukemic cell P388 according to the method of J. M. Whiteley et al. [see Arch.
A solution of purified DHFR was added to a solution comprising a potassium phosphate buffer solution (pH: 7.5, 75 mM), mercaptoethanol (7.5 mM) and NADPH (0.25 mM) to make up to a total amount of 0.57 mi. Each of the serial dilutions of the compound according to the present invention in an amount of 0.015 ml was added to the mixture prepared above. […] The obtained mixtures were kept at 37° C. for 5 minutes to conduct a reaction.

[2] = tested on: Mouse leukemic cell P388; test: Inhibitory activity against proliferation of oncocyte, P388 (MTT method); format: cell-based; conditions: 72 h
Description: (§1) Mouse leukemic cell P388, mouse colonic cancer cell Colon 38, human rhinopharyngeal cancer cell KB and human lung cancer cell A549 were used as the oncocytes. […] The microplate was placed in a carbon dioxide incubator containing 5% of CO2 and incubated at 37° C. for one day. The DMSO solution of the compound according to the present invention was diluted with the culture medium to prepare the serial dilutions of the compound. These dilutions were added to the above wells in a predetermined amount. The resulting plate was cultured at 37° C. for 3 days. […] The number of viable cells was determined according to the method of M. C.

[3] = tested on: human lung cancer cell A549; test: Inhibitory activity against proliferation of oncocyte, A549 (MTT method); format: cell-based; conditions: 72 h
Description: as §1

[4] = tested on: human rhinopharyngeal cancer cell KB; test: Inhibitory activity against proliferation of oncocyte, KB (MTT method); format: cell-based; conditions: 72 h
Description: as §1

[5] = tested on: mouse colonic cancer cell Colon 38; test: Inhibitory activity against proliferation of oncocyte, Colon 38 (MTT method); format: cell-based; conditions: 72 h
Description: as §1

[6] = tested on: Mouse P388 leukemia; test: Activity against experimental tumor transplanted to mouse (P388 leukemia); format: in vivo; conditions: for MST / T/C: i.p., once a day for four days; for ratio of the maximum effective dose to the minimum one: tumor bearing mouse (CDF1)
Description: P388 cells (1×10^6) were inoculated into the abdominal cavity of a female CDF1 mouse of 7 weeks of age and a test drug was administered to the mouse once a day for four days from the next day.
Each test drug was administered intraperitoneally in a state dissolved or suspended in a 4% solution of NaHCO3 in physiological saline, while only a 4% solution of NaHCO3 in physiological saline was administered to a control group. Each control group was composed of ten mice, while each medicated group was composed of six mice. The antitumor activity was evaluated based on the T/C value calculated according to the following formula: [formula]
The measurement was conducted according to the method of R. I. Geran et al. (see Cancer Chemotherapy Reports (Part 3), 31 (1972)).

[7] = tested on: LX-1; test: Inhibitory activity against proliferation of oncocyte, LX-1; format: cell-based; conditions: Homo sapiens, 72 h, Table 2-B, 3 days
[8] = in words; cited from earlier work
[9] = tested on: dihydrofolate reductase (DHFR); conditions: in words; cited from earlier work
[10] = read-out: 50% cell proliferation-inhibitory concentration (IC50), Table 2-A, 3 days
[11] = read-out: 50% cell proliferation-inhibitory concentration (IC50), Table 2-A, KB, 3 days
[12] = Table 2-B, 3 days, read-out: Proliferation-inhibitory activity IC50
[13] = Table 2-B, KB, 3 days, read-out: Proliferation-inhibitory activity IC50

`Nc1nc(N)c2c(ccn2CCCc2ccc(C(=O)N[C@@H](CCC(=O)O)C(=O)O)cc2)n1` [Ex. 2, N-[4-[3-(2,4-Diaminopyrrolo[3,2-d]pyrimidin-5-yl)propyl]benzoyl]-L-glutamat] showed an IC50 [1] of 97 nM, an IC50 [2, 10] of 12 nM and an IC50 [3, 10] of 19 nM. For the same compound, the IC50 [4, 11] was 9.8 nM, the IC50 [5, 10] was 40 nM and the MST ([6]; Table 3-A, 3.13 mg/kg) was 13.3 ± 0.47. For the same compound, the T/C ([6]; Table 3-A, 3.13 mg/kg) was 148%, the MST ([6]; Table 3-A, 6.25 mg/kg) was 13.5 ± 0.50 and the T/C ([6]; Table 3-A, 6.25 mg/kg) was 150%. It also gave an MST ([6]; Table 3-A, 25.0 mg/kg) of 14.0 ± 0.71, a T/C ([6]; Table 3-A, 25.0 mg/kg) of 156% and an MST ([6]; Table 3-A, 50.0 mg/kg) of 14.8 ± 0.83. For the same compound, the T/C ([6]; Table 3-A, 50.0 mg/kg) was 164%, the MST ([6]; Table 3-A, 100.0 mg/kg) was 14.8 ± 0.83 and the T/C ([6]; Table 3-A, 100.0 mg/kg) was 164%. The MST ([6]; Table 3-A, 200.0 mg/kg) was 16.0 ± 0.82, the T/C ([6]; Table 3-A, 200.0 mg/kg) was 178% and the “ratio of the maximum effective dose to the minimum one” value [6] was “about 60”.

`CC(CCn1ccc2nc(N)nc(N)c21)c1ccc(C(=O)N[C@@H](CCC(=O)O)C(=O)O)cc1` (stereo partly drawn) [Ex. 4, N-[4-[3-(2,4-Diaminopyrrolo[3,2-d]pyrimidin-5-yl)-1-methylpropyl]benzoyl]-L-glutamate] showed an IC50 [1] of 90 nM, an IC50 [2, 10] of 16 nM and an IC50 [3, 10] of 63 nM. For the same compound, the IC50 [4, 11] was 31 nM, the IC50 [5, 10] was 129 nM and the MST ([6]; Table 3-A, 50.0 mg/kg) was 18.5 ± 1.12. For the same compound, the T/C ([6]; Table 3-A, 50.0 mg/kg) was 185%.

Compound `CCC(CCn1ccc2nc(N)nc(N)c21)c1ccc(C(=O)N[C@@H](CCC(=O)O)C(=O)O)cc1` (stereo partly drawn) [Ex. 6, N-[4-[3-(2,4-Diaminopyrrolo[3,2-d]pyrimidin-5-yl)-1-ethylpropyl]benzoyl]-L-glutamate] has an IC50 [1] of 1000 nM, an IC50 [2, 10] of 12 nM and an IC50 [3, 10] of 940 nM. For the same compound, the IC50 [4, 11] was 30 nM and the IC50 [5, 10] was 340 nM.

With `CCC(Cn1ccc2nc(N)nc(N)c21)c1ccc(C(=O)N[C@@H](CCC(=O)O)C(=O)O)cc1` (stereo partly drawn) [Ex. 9, N-[4-[2-(2,4-Diaminopyrrolo[3,2-d]pyrimidin-5-yl)-1-ethylethyl]benzoyl]-L-glutamate] the IC50 [1] was 30 nM, the IC50 [2, 10] was 17 nM and the IC50 [3, 10] was 100 nM. For the same compound, the IC50 [4, 11] was 32 nM, the IC50 [5, 10] was 39 nM and the MST ([6]; Table 3-A, 0.78 mg/kg) was 16.3 ± 1.02. For the same compound, the T/C ([6]; Table 3-A, 0.78 mg/kg) was 181%, the MST ([6]; Table 3-A, 3.13 mg/kg) was 14.8 ± 0.83 and the T/C ([6]; Table 3-A, 3.13 mg/kg) was 164%. For the same compound, the MST ([6]; Table 3-A, 50.0 mg/kg) was 15.0 ± 0.71, the T/C ([6]; Table 3-A, 50.0 mg/kg) was 167% and the “ratio of the maximum effective dose to the minimum one” value [6] was “about 60”.

For `Nc1nc(N)c2c(n1)CCC2CCc1ccc(C(=O)N[C@@H](CCC(=O)O)C(=O)O)cc1` (stereo partly drawn) [Ex. 103, N-{4-[2-(2,4-diamino-6,7-dihydro-5H-cyclopenta[d]pyrimidin-5-yl)ethyl]benzoyl}-L-glutamic], the IC50 [1] was 72 nM, the IC50 [2, 12] was 7.7 nM and the IC50 [3, 12] was 9.8 nM. For the same compound, the IC50 [4, 13] was 3.8 nM, the IC50 [5, 12] was 8.9 nM and the T/C ([6]; Table 3-B, 0.78 mg/kg) was 129%. It also gave a T/C ([6]; Table 3-B, 3.13 mg/kg) of 135% and a T/C ([6]; Table 3-B, 50 mg/kg) of 148%.

With `Nc1nc(N)c2c(n1)CCC2CCCc1ccc(C(=O)N[C@@H](CCC(=O)O)C(=O)O)s1` (stereo partly drawn) [Ex. 105, N-{5-[3-(2,4-diamino-6,7-dihydro-5H-cyclopenta[d]pyrimidin-5-yl)propyl]-2-thenoyl}-L-glutamic acid] the IC50 [1] was 4 nM, the IC50 [2, 12] was 1.8 nM and the IC50 [3, 12] was 2.4 nM. For the same compound, the IC50 [4, 13] was 0.92 nM, the IC50 [5, 12] was 0.87 nM and the IC50 [7] was 0.67 nM. It also gave a T/C ([6]; Table 3-B, 0.05 mg/kg) of 126%, a T/C ([6]; Table 3-B, 0.20 mg/kg) of 151% and a T/C ([6]; Table 3-B, 0.78 mg/kg) of 176%. For the same compound, the T/C ([6]; Table 3-B, 3.13 mg/kg) was 151%.

`Nc1nc(N)c2c(n1)CCC2CCCc1ccc(C(=O)N[C@@H](CCC(=O)O)C(=O)O)cc1` (some centres unmarked) [Ex. 108] showed an IC50 [2, 12] of 2.7 nM, an IC50 [3, 12] of 9.3 nM and an IC50 [4, 13] of 1.6 nM. It also gave an IC50 [5, 12] of 4.1 nM, a T/C ([6]; Table 3-B, 0.20 mg/kg) of 133% and a T/C ([6]; Table 3-B, 0.78 mg/kg) of 150%. For the same compound, the T/C ([6]; Table 3-B, 3.13 mg/kg) was 170%.

`CN(Cc1cnc2nc(N)nc(N)c2n1)c1ccc(C(=O)N[C@@H](CCC(=O)O)C(=O)O)cc1` [MTX, Methotrexate, reference compound] showed an IC50 [2, 12] of 22 nM, an IC50 [2, 10] of 16 nM and an IC50 [3, 12] of 88 nM. For the same compound, the IC50 [3, 10] was 80 nM, the IC50 [4, 13] was 11 nM and the IC50 ([4]; read-out: 50% cell proliferation-inhibitory concentration (IC50)) was 20 nM. The IC50 [5, 12] was 28 nM, the IC50 [5, 10] was 60 nM and the potent adverse effects [8] was “bone marrow suppression and degradation of the intestinal epithelium”. For the same compound, the “inhibitory activity against dihydrofolate reductase (DHFR)” value [9] was “high inhibitory activity”.
